The source of these data is patent US12441768B2, “Compositions and methods for treating endometriosis” (EndoMet Biosciences, Inc., priority 2018, dated 2025).

Where a SMILES comes first, the peptide text is derived from it. [ ]: non-standard residue; d: D form. The star is where a group is joined. ξ: configuration not given here. NMeW = CN[C@@H](Cc1c[nH]c2ccccc12)C(=O)O; Palmitoyl = CCCCCCCCCCCCCCCC(=O)*; ξαMeV = CC(C)C(C)(N)C(=O)O; ξαMeS = CC(N)(CO)C(=O)O

The target of assay [1] is Wnt-responsive promoter (TCF/LEF). The assay is described as follows: Wnt-dependent luciferase reporter assay. It is filed as cell-based, murine. How it is done:
The luciferase reporter assay is commonly used as a tool to study gene expression at the transcriptional level. Peptides from libraries described herein were characterized for ability to suppress transcription in cells with luciferase expression controlled by a Wnt-responsive promoter. Peptides were added to cells transfected with luciferase gene downstream of a Wnt-responsive promoter. Cells were stimulated with Wnt3a protein and incubated with peptides from libraries described herein. Luminescence was recorded to determine the peptides with the highest β-catenin-inhibiting activity. EC50 values were calculated based on the inhibition of luminescence and expressed as concentration (uM) in Table 5.
Peptides were assessed for their ability to inhibit Wnt signaling. Murine 3T3 fibroblasts that express luciferase under a Wnt-responsive promoter (TCF/LEF) (Enzo Life Sciences, Farmingdale, NY) were stimulated with Wnt3a in the presence of increasing concentrations of peptide inhibitor (Hit 1: SEQ ID NO:217, Hit 2: SEQ ID NO:224, Hit 3: SEQ ID NO:228, Hit 4: SEQ ID NO:227, Hit 5: SEQ ID NO:220, Hit 6: SEQ ID NO:168. Hit 7: SEQ ID NO:226) or with vehicle control (FIG. 2A).

For the next assay, the target named is T1, β-catenin (Homo sapiens, UniProt P35222).
T1 sequence (P35222 1-781): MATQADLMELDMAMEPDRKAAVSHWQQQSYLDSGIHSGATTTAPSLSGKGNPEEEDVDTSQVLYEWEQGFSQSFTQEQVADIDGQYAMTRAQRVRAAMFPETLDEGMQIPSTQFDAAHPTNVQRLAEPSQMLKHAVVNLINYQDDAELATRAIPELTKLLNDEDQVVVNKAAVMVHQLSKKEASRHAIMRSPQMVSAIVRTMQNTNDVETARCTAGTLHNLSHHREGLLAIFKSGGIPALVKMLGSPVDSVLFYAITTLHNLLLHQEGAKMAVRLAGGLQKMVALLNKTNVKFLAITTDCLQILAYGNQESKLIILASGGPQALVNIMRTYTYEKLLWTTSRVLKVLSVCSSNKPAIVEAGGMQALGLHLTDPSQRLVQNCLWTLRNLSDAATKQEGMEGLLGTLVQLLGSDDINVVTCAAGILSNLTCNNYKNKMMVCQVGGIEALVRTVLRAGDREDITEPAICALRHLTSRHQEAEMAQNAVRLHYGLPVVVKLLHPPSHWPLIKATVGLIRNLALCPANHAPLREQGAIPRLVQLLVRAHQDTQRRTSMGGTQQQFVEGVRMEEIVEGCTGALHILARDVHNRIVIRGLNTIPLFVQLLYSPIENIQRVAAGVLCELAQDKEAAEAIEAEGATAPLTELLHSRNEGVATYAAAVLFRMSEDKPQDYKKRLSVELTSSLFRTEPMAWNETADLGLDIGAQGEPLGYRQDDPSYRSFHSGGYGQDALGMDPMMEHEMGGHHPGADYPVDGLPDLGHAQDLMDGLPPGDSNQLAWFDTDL
The assay is described as follows: KD50 measurement using competitive fluorescence polarization (FP) with labelled TCF4. It is filed as binding. The following applies: fluorescence polarization, β-catenin; for Kd: read-out: β-Cat FP KD. Put shortly: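 Each compound competes against labelled TCF4 (5 nM) for 100 nM β-catenin at room temperature, tested over 10 nM to 30 uM. Signal: polarization at 470/520 nm excitation/emission. Three repeat experiments were performed.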
(In fluorescence polarisation assays a small probe gives low polarisation when free and higher when bound to something large.)

With `CC[C@H](C)[C@H](NC(=O)[C@H](CO)NC(=O)[C@H](CCC(=O)O)NC(=O)[C@H](Cc1c[nH]c2ccccc12)N(C)C(=O)[C@@H](N)Cc1c[nH]c2ccccc12)C(=O)N[C@@H](CC(C)C)C(=O)N[C@@H](CC(=O)O)C(=O)N[C@@H](CCC(=O)O)C(=O)N[C@@H](Cc1c[nH]cn1)C(=O)N[C@H](C(=O)N[C@@H](CCC(N)=O)C(=O)N[C@@H](CCCNC(=N)N)C(=O)N[C@H](C(=O)N[C@@H](Cc1c[nH]c2ccccc12)C(=O)NCC(N)=O)C(C)C)C(C)C` [compound 36] (HELM PEPTIDE1{W.[meW].E.S.I.L.D.E.H.V.Q.R.V.W.G.[am]}$$$$V2.0), the EC50 – broadly, the concentration needed to bring the measured effect to its halfway point – in assay [1] is greater than 30 µM. In addition, at β-catenin, the “β-Cat FP Hill slope” value was 0.87 and the dissociation constant Kd – broadly, the free concentration of one partner at which half of the binding sites on the other are occupied at equilibrium, for simple one-to-one binding – was less than 0.4 µM.
For `CC[C@H](C)[C@H](NC(=O)[C@H](CO)NC(=O)[C@H](CCC(=O)O)NC(=O)[C@H](Cc1c[nH]c2ccccc12)N(C)C(=O)[C@H](Cc1c[nH]c2ccccc12)NC)C(=O)N[C@@H](CC(C)C)C(=O)N[C@@H](CC(=O)O)C(=O)N[C@@H](CCC(=O)O)C(=O)N[C@@H](Cc1c[nH]cn1)C(=O)N[C@H](C(=O)N[C@@H](CCC(N)=O)C(=O)N[C@@H](CCCNC(=N)N)C(=O)N[C@H](C(=O)N[C@@H](Cc1c[nH]c2ccccc12)C(=O)NCC(N)=O)C(C)C)C(C)C` [compound 37] (HELM PEPTIDE1{[meW].[meW].E.S.I.L.D.E.H.V.Q.R.V.W.G.[am]}$$$$V2.0) the same measures were greater than 30 µM, 0.7 and less than 0.4 µM.
On to `CC[C@H](C)[C@H](NC(=O)C(C)(CO)NC(=O)[C@H](CCC(=O)O)NC(=O)[C@H](Cc1c[nH]c2ccccc12)N(C)C(=O)[C@@H](N)Cc1c[nH]c2ccccc12)C(=O)N[C@@H](CC(C)C)C(=O)N[C@@H](CC(=O)O)C(=O)N[C@@H](CCC(=O)O)C(=O)N[C@@H](Cc1c[nH]cn1)C(=O)NC(C)(C(=O)N[C@@H](CCC(N)=O)C(=O)N[C@@H](CCCNC(=N)N)C(=O)N[C@H](C(=O)N[C@@H](Cc1c[nH]c2ccccc12)C(=O)NCC(N)=O)C(C)C)C(C)C` (some centres unmarked) [compound 38] (HELM PEPTIDE1{W.[meW].E.[CC(CO)(N[*:1])C(=O)[*:2]].I.L.D.E.H.[CC(C)C(C)(N[*:1])C(=O)[*:2]].Q.R.V.W.G.[am]}$$$$V2.0), for which the EC50 in assay [1] was greater than 30 µM. In addition, at β-catenin, the “β-Cat FP Hill slope” value is 0.9 and the Kd was less than 0.4 µM.
`CC[C@H](C)[C@H](NC(=O)[C@H](CO)NC(=O)[C@H](CCC(=O)O)NC(=O)[C@H](Cc1c[nH]c2ccccc12)N(C)C(=O)[C@@H](N)Cc1c[nH]c2ccccc12)C(=O)N[C@@H](CC(C)C)C(=O)N[C@@H](CC(=O)O)C(=O)N[C@@H](CCC(=O)O)C(=O)N[C@@H](Cc1c[nH]cn1)C(=O)NC(C)(C(=O)N[C@@H](CCC(N)=O)C(=O)N[C@@H](CCCNC(=N)N)C(=O)N[C@H](C(=O)N[C@@H](Cc1c[nH]c2ccccc12)C(=O)NCC(N)=O)C(C)C)C(C)C` (some centres unmarked) [compound 39] (HELM PEPTIDE1{W.[meW].E.S.I.L.D.E.H.[CC(C)C(C)(N[*:1])C(=O)[*:2]].Q.R.V.W.G.[am]}$$$$V2.0): the EC50 in assay [1] was greater than 30 µM. Also, at β-catenin, the “β-Cat FP Hill slope” value was found to be 0.89 and the Kd was less than 0.4 µM.
`CC[C@H](C)[C@H](NC(=O)C(C)(CO)NC(=O)[C@H](CCC(=O)O)NC(=O)[C@H](Cc1c[nH]c2ccccc12)N(C)C(=O)[C@@H](N)Cc1c[nH]c2ccccc12)C(=O)N[C@@H](CC(C)C)C(=O)N[C@@H](CC(=O)O)C(=O)N[C@@H](CCC(=O)O)C(=O)N[C@@H](Cc1c[nH]cn1)C(=O)N[C@H](C(=O)N[C@@H](CCC(N)=O)C(=O)N[C@@H](CCCNC(=N)N)C(=O)N[C@H](C(=O)N[C@@H](Cc1c[nH]c2ccccc12)C(=O)NCC(N)=O)C(C)C)C(C)C` (some centres unmarked) [compound 40] (HELM PEPTIDE1{W.[meW].E.[CC(CO)(N[*:1])C(=O)[*:2]].I.L.D.E.H.V.Q.R.V.W.G.[am]}$$$$V2.0): in assay [1], the EC50 was greater than 30 µM. In addition, on β-catenin, the “β-Cat FP Hill slope” value is on record as 0.88 and the Kd is less than 0.4 µM.
`CCCCCCCCCCCCCCCC(=O)N[C@@H](Cc1c[nH]c2ccccc12)C(=O)N(C)[C@@H](Cc1c[nH]c2ccccc12)C(=O)N[C@@H](CCC(=O)O)C(=O)NC(C)(CO)C(=O)N[C@H](C(=O)N[C@@H](CC(C)C)C(=O)N[C@@H](CC(=O)O)C(=O)N[C@@H](CCC(=O)O)C(=O)N[C@@H](Cc1c[nH]cn1)C(=O)NC(C)(C(=O)N[C@@H](CCC(N)=O)C(=O)N[C@@H](CCCNC(=N)N)C(=O)N[C@H](C(=O)N[C@@H](Cc1c[nH]c2ccccc12)C(=O)O)C(C)C)C(C)C)[C@@H](C)CC` (some centres unmarked) [compound 397] (Palmitoyl-W[NMeW]E[ξαMeS]ILDEH[ξαMeV]QRVW-OH) yielded an EC50 in assay [1] of 7.5 to 15 µM. On β-catenin, the Kd was greater than 30 µM.
`CC[C@H](C)[C@@H]1NC(=O)[C@@H](NC(=O)[C@H](CCC(N)=O)NC(=O)[C@H](C)N(C)C(=O)[C@@H](N)Cc2c[nH]c3ccccc23)CCCCNC(=O)CC[C@@H](C(=O)N[C@@H](Cc2c[nH]cn2)C(=O)N[C@H](C(=O)N[C@@H](CCC(N)=O)C(=O)N[C@@H](CCCNC(=N)N)C(=O)N[C@H](C(=O)N[C@@H](Cc2c[nH]c3ccccc23)C(=O)NCC(N)=O)C(C)C)C(C)C)NC(=O)[C@H](CC(=O)O)NC(=O)[C@H](CC(C)C)NC1=O` [compound 401] (HELM PEPTIDE1{W.[meA].Q.K.I.L.D.E.H.V.Q.R.V.W.G.[am]}$PEPTIDE1,PEPTIDE1,4:R3-8:R3$$$V2.0) came in with an EC50 in assay [1] greater than 30 µM. For the same compound, at β-catenin, the “β-Cat FP Hill slope” value stood at 0.7 and the Kd lay within 0.4 to 1 µM.
For the compound `CC[C@H](C)[C@@H]1NC(=O)[C@@H](NC(=O)[C@H](CCC(N)=O)NC(=O)[C@H](C)N(C)C(=O)[C@H](Cc2c[nH]c3ccccc23)NC(C)=O)CCCCNC(=O)CC[C@@H](C(=O)N[C@@H](Cc2c[nH]cn2)C(=O)N[C@H](C(=O)N[C@@H](CCC(N)=O)C(=O)N[C@@H](CCCNC(=N)N)C(=O)N[C@H](C(=O)N[C@@H](Cc2c[nH]c3ccccc23)C(=O)NCC(N)=O)C(C)C)C(C)C)NC(=O)[C@H](CC(=O)O)NC(=O)[C@H](CC(C)C)NC1=O` [compound 402] (HELM PEPTIDE1{[ac].W.[meA].Q.K.I.L.D.E.H.V.Q.R.V.W.G.[am]}$PEPTIDE1,PEPTIDE1,5:R3-9:R3$$$V2.0), in assay [1], the EC50 was greater than 30 µM. Also, at β-catenin, the “β-Cat FP Hill slope” value was found to be 0.7 and the Kd was less than 0.4 µM.
Compound `CC[C@H](C)[C@@H]1NC(=O)[C@@H](NC(=O)[C@H](CCC(N)=O)NC(=O)[C@H](C)N(C)C(=O)[C@@H](N)Cc2c[nH]c3ccccc23)CCCCNC(=O)CC[C@@H](C(=O)N[C@@H](Cc2c[nH]cn2)C(=O)N[C@H](C(=O)N[C@@H](CCC(N)=O)C(=O)N[C@@H](CCCNC(=N)N)C(=O)N[C@H](C(=O)N[C@@H](Cc2c[nH]c3ccccc23)C(=O)NCC(N)=O)C(C)C)C2CCCCC2)NC(=O)[C@H](CC(=O)O)NC(=O)[C@H](CC(C)C)NC1=O` [compound 403] (HELM PEPTIDE1{W.[meA].Q.K.I.L.D.E.H.[O=C([C@@H](N[*:1])C1CCCCC1)[*:2]].Q.R.V.W.G.[am]}$PEPTIDE1,PEPTIDE1,4:R3-8:R3$$$V2.0) showed an EC50 in assay [1] greater than 30 µM. At β-catenin, the “β-Cat FP Hill slope” value is 0.76 and the Kd is less than 0.4 µM.
Compound `CC[C@H](C)[C@@H]1NC(=O)[C@@H](NC(=O)[C@H](CCC(N)=O)NC(=O)[C@H](C)N(C)C(=O)[C@H](Cc2c[nH]c3ccccc23)NC(C)=O)CCCCNC(=O)CC[C@@H](C(=O)N[C@@H](Cc2c[nH]cn2)C(=O)N[C@H](C(=O)N[C@@H](CCC(N)=O)C(=O)N[C@@H](CCCNC(=N)N)C(=O)N[C@H](C(=O)N[C@@H](Cc2c[nH]c3ccccc23)C(=O)NCC(N)=O)C(C)C)C2CCCCC2)NC(=O)[C@H](CC(=O)O)NC(=O)[C@H](CC(C)C)NC1=O` [compound 404] (HELM PEPTIDE1{[ac].W.[meA].Q.K.I.L.D.E.H.[O=C([C@@H](N[*:1])C1CCCCC1)[*:2]].Q.R.V.W.G.[am]}$PEPTIDE1,PEPTIDE1,5:R3-9:R3$$$V2.0) yielded an EC50 in assay [1] greater than 30 µM. Besides, on β-catenin, the “β-Cat FP Hill slope” value amounted to 0.79 and the Kd was less than 0.4 µM.
